Test results published in patent US20260191863A1, “PYRROLOPYRIMIDINE COMPOSITIONS FOR TREATMENT OF ITK MEDIATED CONDITIONS” (ACLARIS THERAPEUTICS, INC., priority 2022, published 2026).

Molecular target: T1, JAK3 (Homo sapiens, UniProt P52333)
T1 construct: IL-2/pSTAT5; endogenous in cells; host or cells: human PBMC
T1 sequence (P52333 1-1124): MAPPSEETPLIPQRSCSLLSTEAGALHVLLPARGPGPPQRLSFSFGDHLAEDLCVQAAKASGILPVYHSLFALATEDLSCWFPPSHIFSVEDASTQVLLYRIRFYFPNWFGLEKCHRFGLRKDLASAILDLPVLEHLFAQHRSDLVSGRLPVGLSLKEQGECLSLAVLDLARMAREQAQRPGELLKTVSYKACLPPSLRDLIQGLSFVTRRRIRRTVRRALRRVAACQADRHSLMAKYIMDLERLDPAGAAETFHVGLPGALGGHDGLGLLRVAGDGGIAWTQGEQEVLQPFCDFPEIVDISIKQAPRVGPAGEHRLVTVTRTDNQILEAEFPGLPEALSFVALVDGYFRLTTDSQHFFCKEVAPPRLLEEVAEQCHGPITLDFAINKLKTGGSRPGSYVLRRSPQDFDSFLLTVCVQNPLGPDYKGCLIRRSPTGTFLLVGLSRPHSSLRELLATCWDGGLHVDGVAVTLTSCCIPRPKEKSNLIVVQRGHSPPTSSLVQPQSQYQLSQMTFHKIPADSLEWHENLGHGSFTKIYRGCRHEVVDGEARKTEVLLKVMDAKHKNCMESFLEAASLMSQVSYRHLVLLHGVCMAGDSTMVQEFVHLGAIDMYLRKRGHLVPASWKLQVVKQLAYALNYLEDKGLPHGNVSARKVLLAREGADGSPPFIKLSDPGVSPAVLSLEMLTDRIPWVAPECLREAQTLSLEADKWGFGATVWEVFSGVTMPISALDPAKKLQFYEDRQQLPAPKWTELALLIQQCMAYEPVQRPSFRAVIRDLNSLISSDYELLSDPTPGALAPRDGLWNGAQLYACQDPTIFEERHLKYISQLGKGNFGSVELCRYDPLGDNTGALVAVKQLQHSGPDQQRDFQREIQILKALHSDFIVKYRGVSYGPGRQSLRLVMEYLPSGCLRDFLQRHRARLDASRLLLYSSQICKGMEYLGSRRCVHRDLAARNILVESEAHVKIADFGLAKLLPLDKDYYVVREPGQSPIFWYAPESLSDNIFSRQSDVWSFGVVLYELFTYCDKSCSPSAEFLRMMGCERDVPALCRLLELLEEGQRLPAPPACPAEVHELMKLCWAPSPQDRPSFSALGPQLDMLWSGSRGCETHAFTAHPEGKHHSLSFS
Test: Cell IC50 JAK3 hPBMC IL-2/pSTAT5
Format: cell-based

In the case of `C=CC(=O)N1C[C@H](Nc2ncnc3[nH]cc([C@H]4CC4(F)F)c23)CC[C@@H]1C` [Compound I, 1-((2S,5R)-5-((5-((R)-2,2-difluorocyclopropyl)-7H-pyrrolo[2,3-d]pyrimidin-4-yl)amino)-2-methylpiperidin-1-yl)prop-2-en-1-one], the “Potency relative to Ritlecitinib, JAK3 hPBMC IL-2/pSTAT5” value is reported as 2.3 fold, the IC50 (hPBMC, IL-2/pSTAT5) is reported as 23 nM and the JAK specificity (vs other JAK kinases like JAK2) is reported as “completely specific for JAK3”.
